# Measurements published in US8232301B2, “Pesticidal compositions” (Dow AgroScience, LLC., priority 2008, dated 2012).
# Several values for one entry are separate records, joined by “and”; a condition that tells them apart may be missing. Equal values may be shown once. Marks after values point to notes of the source that are not given here.
# System: green peach aphid, Myzus persicae (GPA)
# Test: Foliar spray test of Compound A, nonionic surfactant and AMS combinations on green peach aphid on cabbage
# Assay type: in vivo
# Conditions: for T-Test Results (synergy mark): measured vs Colby, two-sided T-test; for % Control (negative values to 0) / Calculated Colby Value / Aphid count/plant: Rep 1-4
# Experimental: Materials and Methods. Solutions of nonionic surfactant (Atlox 4991 0.125% and 0.25% V/V; 1250 and 2500 ppm respectively) and ammonium sulfate (“AMS” 10,200 and 20,400 ppm) were prepared in 500 mL of water. Water used to prepare all solutions was obtained from a Milli Q water purification system. Combination mixtures were created by adding surfactant to aliquots of AMS and water solution to create all two-way combinations of surfactant and AMS. A 500 ppm stock solution of Compound A in water was prepared by adding […] of Compound A to 40 mL of water. 62.4 μL of this 500 ppm solution was added to 20 mL of each AMS, surfactant, or surfactant and AMS solution to create 1.56 ppm Compound A high rate solutions. These high rate solutions of Compound A and surfactant, Compound A and AMS, or Compound A, AMS, and surfactant, were serially diluted in two-fold increments with the appropriate surfactant, AMS, or AMS and surfactant combination solutions, to create a dilution series from 1.56 to 0.19 ppm. A dilution series of Compound A in water with no surfactant or AMS was also prepared. All solutions of surfactant, AMS, or surfactant and AMS, were tested without Compound A. Two-to-three-leaf stage cabbage plants were infested on day 1 with green peach aphid, Myzus persicae (GPA), by transferring aphid infested foliage to each plant. A uniform number of aphids were transferred based on visual inspection of the infested foliage. Plants were sprayed on all surfaces to wet using a hand held aspirator type sprayer on day 2. Four replicates of each treatment combination were sprayed and all stages of live aphids on each plant were counted on day 4. Data were converted to percent control based on the number of aphids in the unsprayed check treatment. Counts of aphids on unsprayed check plants were used to calculate control for surfactant and AMS solutions. Additionally, the average aphid count on the unsprayed check treatment was used to calculate percent control values for plants sprayed with only Compound A. Aphid counts from plants treated with combinations of Compound A and AMS, surfactant, or AMS and surfactant, were converted to percent control by using the average aphid count from the unsprayed check treatment. Negative percent control values were changed to zero percent control values before assessing treatment combinations for synergy. […] Measured efficacy (percent Control) data were compared to calculated Colby values (Colby, S. R. 1967. Calculating Synergistic and Antagonistic Responses of Herbicide Combinations. Weeds 15:20-22) using a two-sided T-test (Minitab).
# [1] = A 0.19 ppm + NS 1250 ppm + AMS 10,200 ppm
# [2] = A 0.19 ppm + NS 1250 ppm + AMS 20,400 ppm
# [3] = A 0.19 ppm + NS 2500 ppm + AMS 10,200 ppm
# [4] = A 0.19 ppm + NS 2500 ppm + AMS 20,400 ppm
# [5] = treatment #12: A 0.19 ppm + AMS 20,400 ppm
# [6] = treatment #14: A 0.19 ppm + NS 1250 ppm + AMS 20,400 ppm
# [7] = treatment #15: A 0.19 ppm + NS 2500 ppm + AMS 20,400 ppm
# [8] = treatment #16: A 0.19 ppm + NS 1250 ppm + AMS 10,200 ppm
smiles,measurement,setting,value
CC(c1ccc(C(F)(F)F)nc1)S(C)(=O)=NC#N (stereo not drawn) [Compound A],"% Control Colby Calculated, Mean","A 0.19 ppm + AMS 10,200 ppm",43%
same,"% Control Measured, Mean","A 0.19 ppm + AMS 10,200 ppm",32%
same,"% Control Colby Calculated, Mean","A 0.19 ppm + AMS 20,400 ppm",55.58%
same,"% Control Measured, Mean","A 0.19 ppm + AMS 20,400 ppm",38.3%
same,"% Control Colby Calculated, Mean",A 0.19 ppm + NS 1250 ppm,58.28%
same,"% Control Measured, Mean",A 0.19 ppm + NS 1250 ppm,76.4%
same,"% Control Colby Calculated, Mean",[1],58.28%
same,"% Control Measured, Mean",[1],93.28%
same,T-Test Results (synergy mark),[1],T = 6.60 P = 0.0027***
same,"% Control Colby Calculated, Mean",[2],60.1%
same,"% Control Measured, Mean",[2],91.1%
same,T-Test Results (synergy mark),[2],T = 3.26 P = 0.022***
same,"% Control Colby Calculated, Mean",A 0.19 ppm + NS 2500 ppm,57%
same,"% Control Measured, Mean",A 0.19 ppm + NS 2500 ppm,63.7%
same,"% Control Colby Calculated, Mean",[3],57%
same,"% Control Measured, Mean",[3],80%
same,"% Control Colby Calculated, Mean",[4],63.3%
same,"% Control Measured, Mean",[4],96.33%
same,T-Test Results (synergy mark),[4],T = 3.68 P = 0.035***
same,synergy,"A 0.19 ppm combined with AMS and surfactant, three of 4 possible mixtures statistically supported",significant synergy
same,synergy,"A 0.19 ppm combined with surfactant or AMS (two-way mixtures), 0.05% level",no instances where synergy could be supported
same,efficacy,"A at concentrations of 1.56, 0.78 and 0.39, not combined with surfactant or AMS",great enough that identifying synergy was not practical
same,% Control (negative values to 0),treatment #10: A 0.19 ppm + NS 1250 ppm,85.4% and 98.1% and 64.3% and 57.9%
same,Calculated Colby Value,"treatment #10: A 0.19 ppm + NS 1250 ppm, predicted % control",53.6% and 63.2% and 60.2% and 56.1%
same,Aphid count/plant,[5],19 and 24 and 20
same,Calculated Colby Value,[5],56.5% and 64.4% and 43.9% and 57.5%
same,Aphid count/plant,"treatment #13: A 0.19 ppm + AMS 10,200 ppm",23 and 30 and 28 and 17
same,% Control (negative values to 0),[6],97.9% and 98.1% and 100.0% and 68.4%
same,Calculated Colby Value,[6],53.6% and 63.2% and 48.7% and 74.8%
same,% Control (negative values to 0),[7],95.8% and 100.0% and 89.5%
same,Calculated Colby Value,[7],60.2% and 63.2% and 43.9% and 85.8%
same,% Control (negative values to 0),[8],97.9% and 96.3% and 100.0% and 78.9%
same,Calculated Colby Value,[8],53.6% and 63.2% and 60.2% and 56.1%
same,% Control (negative values to 0),"treatment #17: A 0.19 ppm + NS 2500 ppm + AMS 10,200 ppm",72.9% and 98.1% and 85.7% and 63.2%
"N.N.O=S(=O)(O)O [AMS, ammonium sulfate]",Aphid count/plant,"treatment #4: AMS 20,400 ppm alone",35 and 36 and 38 and 31
same,% Control (negative values to 0),"treatment #5: AMS 10,200 ppm alone",0.0%
